“Also recorded” adds a separate entry of the source. Where two headings read alike, the source gives them in different places.
What was measured:
[1] = tested on: Pseudomonas spp. (P. aeruginosa) in sputum
From the text: Patients were monitored for a further four weeks, bringing the total study time to 10 weeks.

P. aeruginosa biofilms = assay: Biofilms in suspended drops of cystic fibrosis mucus treated with nebulised/aerosolised agents; assay type: cell-based, Pseudomonas aeruginosa; settings: treated 5 min, incubated 16 hours; tobramycin 20 mg/ml, CaEDTA particles 10 mg/ml
[2] = remark: listed apart in the source
Method: Subjects are then discharged and treatment continued twice a day for four weeks. Subjects are monitored for a further four weeks, bringing the total study time to 10 weeks. Sputum is collected by induction with nebulised 3% hypertonic saline at 8-10 L/min for ≥5 minutes. Samples is collected prior to treatment, and at 2, 6 and 10 weeks, processed according to the relevant protocol and stored at −80° C.
Expectorated sputum is stored in RNAlater®, total RNA is extracted using a Qiagen RNEasy® or similar extraction kit, converted into cDNA, and inflammatory markers monitored using qPCR as described by Sivaneson et al. (Mol Microbiol 79, 1353-1366) and quantified relative to known housekeeping genes, such as actin and/or GAPDH.
Expectorated sputum is frozen directly without processing and assayed for inflammatory markers as above. As a measure of structural damage, levels of matrix metalloproteinases (MMPs) and tissue inhibitors of metalloproteinases (TIMPs) are measured using gelatin zymography and immunoassays, respectively as previously described (Gaggar et al., Eur Respir J. 2011 38(3): 721-727; Garratt et al., Eur Respir J. 2015 46(2):384-94). The amount of iron in the sputum is quantified by ICP-MS as previously described (Hunter et al., MBio. 2013 4(4):1-8). The amount of iron-binding proteins is assessed using immunoassays. Oxidative stress is assessed by measuring glutathione (GSSG and GSH) using immunoassays as previously described (Kettle et al., Eur Respir J. 2014 44(1):122-9).

[3] = remark: listed apart in the source
Method: Following discharge, treatment was continued twice a day for four weeks. Subjects were monitored for a further four weeks, bringing the total study time to 10 weeks.
At each study visit, lung function was measured by spirometry. Data was recorded as the best of three attempts, and results were expressed as % predicted.

[4] = versus placebo
Method: A single centre, randomised, double blind, crossover study of cystic fibrosis subjects is carried out. Subjects are randomised for treatment with inhaled CaEDTA or saline (placebo) for two weeks.
Iron levels, inflammatory markers, MMP/TIMP and FEV1 are monitored as above. Myeloperoxidase activity is also assayed as a measure of neutrophilic inflammation as previously described (Gaggar et al., Eur Respir J. 2011 38(3): 721-727). 3-chlorotyrosine will be measured as a biomarker of the potent oxidant hypochlorous acid. Levels are measured using stable isotope dilution gas chromatography with mass spectrometry (Gaggar et al., Eur Respir J. 2011 38(3): 721-727). Protein carbonyls are measured as an indicator of reactive oxygen species (ROS) using a commercial immunoassay kit (Gaggar et al., Eur Respir J. 2011 38(3): 721-727).

bacterial infections = settings: inhaled EDTA alone; cited from earlier work
Lung epithelial cells = settings: versus controls
Method: Lung epithelial cells are grown in tissue culture and inflammation induced by exposure to Fe(II) or excess oxygen. The cells are treated with CaEDTA (0, 1, 5, 10, 25, 50 mM) for 30 min, 1, 3, 24 and 48 hours.
Immunoassays are used to monitor the change in inflammatory markers, such as IL-6, IL-8, TNF-α, neutrophil elastase and others. Oxidative stress and toxicity is measured by assessing reduced glutathione (GSH) levels and apoptosis based on a TUNEL assay, both using commercial assay kits such as ThermoFisher Scientific's Glutathione Fluorescent Detection Kit and BioVision Inc's TUNEL DNA Gragmentation Assay Kit.

[5] = in vivo; cited from earlier work
[6] = remark: listed apart in the source
Method: Subjects with CF who need treatment with dry powder tobramycin will be allocated into four cohorts and receive 112 mg dry powder twice a day for 28 days. In addition, Cohort 1 (patients >18 years) will receive ascending doses of dry powder CaEDTA (37.5 mg BID for 1 week; 75 mg BID for 2 weeks, 150 mg BID for 1 week). Cohort 2 (patients >18 years) will receive CaEDTA (37.5 mg BID for 1 week; 75 BID for 2 weeks; 75 mg QID for 1 week). Cohort 3 (patients 12-18 years) will receive CaEDTA (37.5 mg BID for 1 week; 75 mg BID for 2 weeks, 150 mg BID for 1 week. Finally, an observational cohort will receive tobramycin alone for 28 days.
Sputum samples will be collected weekly and assessed for markers of infection and inflammation. Bacteria will be monitored by sputum colony counts. As a measure of structural damage, levels of matrix metalloproteinases (MMPs) and tissue inhibitors of metalloproteinases (TIMPs) are measured using gelatin zymography and immunoassays, respectively, as previously described (Gaggar et al., Eur Respir J. 2011 38(3): 721-727; Garratt et al., Eur Respir J. 2015 46(2):384-94). The amount of iron in the sputum is quantified by ICP-MS as previously described (Hunter et al., MBio. 2013 4(4):1-8). The amount of iron-binding proteins is assessed using immunoassays. Myeloperoxidase activity are also assayed as a measure of neutrophilic inflammation as previously described (Gaggar et al., Eur Respir J. 2011 38(3): 721-727). 3-chlorotyrosine is measured as a biomarker of the potent oxidant hypochlorous acid. Levels are measured using stable isotope dilution gas chromatography with mass spectrometry (Gaggar et al., Eur Respir J. 2011 38(3): 721-727). Protein carbonyls are measured as an indicator of reactive oxygen species (ROS) using a commercial immunoassay kit (Gaggar et al., Eur Respir J. 2011 38(3): 721-727). Oxidative stress is assessed by measuring glutathione (GSSG and GSH) using immunoassays as previously described (Kettle et al., Eur Respir J. 2014 44(1):122-9). Gene expression of inflammatory and oxidative stress markers (e.g. IL-8, IL-6, TNFa) will also be monitored by Nanostring, and proteins will be measured by ELISA. Oxidative stress can also be measured via metabolites, such as molondialdehyde (colorimetric assay) or 8-isoprostane (ELISA). Iron will be measured by elemental analysis using laser ablation-inductively coupled plasma-mass spectrometry (LA-ICP-MS).

[7] = in vivo; cited from earlier work; remark: listed apart in the source
[8] = tested on: Pseudomonas aeruginosa clinical strain; assay: MIC of tobramycin for the clinical strain used for biofilms; assay type: cell-based; settings: P. aeruginosa clinical strain
[9] = ten CF children, nebulised, three months; cited from earlier work
[10] = EDTA group versus placebo group

## O=C([O-])CN(CCN(CC(=O)[O-])CC(=O)[O-])CC(=O)[O-].[Ca+2].[Na+].[Na+] [CaEDTA, CaNa2EDTA]
5 minutes after 75 mg nebulised CaEDTA, CF subjects
  EDTA concentration in sputum: 0.41 to 1.34 mM
Single dose of 75 mg CaEDTA, after 30 minutes
  EDTA concentration inside mucus plugs: up to 1.34 mM
[1]; CF subjects, nebulised CaEDTA versus saline
  bacterial load in expectorated mucus: reduces the bacterial load in CF lungs faster than antibiotic treatment alone

## O=C(O)CN(CCN(CC(=O)O)CC(=O)O)CC(=O)O [EDTA, ethylene diamine tetraacetic acid]
P. aeruginosa biofilms
  biofilm viability / killing (BacLight LIVE/DEAD, confocal microscopy): some degree of killing; also recorded: kill P. aeruginosa biofilms and act synergistically with tobramycin
[2]; [10]
  gene expression of inflammatory markers in sputum (qPCR): mean reduction in the gene expression of inflammatory markers
  inflammatory markers in sputum: reduction in inflammatory markers
[2]; especially MMP-9 and TIMP-1
  balance between MMPs and TIMPs: change in the balance between MMPs and TIMPs
[3]; after 2 weeks, 300 mg EDTA/day, placebo 5% points
  mean increase in FEV1: 16 % points
[3]; four weeks after the treatment had been completed (10 weeks), placebo 2% point
  increase in FEV1: 7 % points
[3]; mg EDTA/kg body weight
  effect on lung function: dose-dependent effect on lung function
[4]
  MMP/TIMP balance: altered MMP/TIMP balance
  inflammatory markers: reduced levels of iron and inflammatory markers
  iron levels: reduced levels of iron
  mean FEV1: increased mean FEV1
  mean levels of chlorotyrosine and carbonyls: lower mean levels of chlorotyrosine and carbonyls
  myeloperoxidase activity: reduced myeloperoxidase activity
Bacterial infections
  treatment of bacterial infections: does not treat bacterial infections
Lung epithelial cells; CaEDTA 0-50 mM, 30 min to 48 hours
  inflammatory markers (IL-6, IL-8, TNF-α, neutrophil elastase): concentration dependent reduction in inflammatory markers
Lung epithelial cells
  apoptosis (TUNEL assay): reduced apoptosis
  reduced glutathione (GSH) levels: reduction in GSH
[5]
  bronchoconstriction: concentration-dependent bronchoconstriction
[6]; [10]
  inflammatory markers in sputum: reduction in inflammatory markers
  iron levels in sputum: decrease in iron levels
[6]; especially MMP-9 and TIMP-1
  balance between MMPs and TIMPs: change in the balance between MMPs and TIMPs
[6]; versus control patients
  FEV1: increase in FEV1
  bacterial load in sputum: reduction of bacterial load in sputum
[7]
  effect on FEV1: no effect on FEV1
[1]; after two weeks of treatment, 300 mg EDTA/day with tobramycin, placebo 4.5-fold
  reduction in colony counts of P. aeruginosa (McC agar) versus start of treatment: > 400 fold

## NC[C@H]1O[C@H](O[C@H]2[C@H](O)[C@@H](O[C@H]3O[C@H](CO)[C@@H](O)[C@H](N)[C@H]3O)[C@H](N)C[C@@H]2N)[C@H](N)C[C@@H]1O [tobramycin]
[8]
  MIC: > 256 µg/mL
P. aeruginosa biofilms
  biofilm viability / killing (BacLight LIVE/DEAD, confocal microscopy): little effect on viability

## sodium EDTA
[9]
  lung function: no change in lung function
